Assay results from patent publication US20140206028A1, “Stable Electrically Active Neurons from Adult Tissue” (University of Central Florida Research Foundation, Inc., priority 2011, published 2014).

Key:
Format in all cases: cell-based
[1] = tested on: adult rat hippocampal neurons; experiment: Control of neuronal division in dissociated adult rat hippocampal neuron culture (cell population, neurite length, marker expression); settings: for elimination of division of cultured neurons by mitotic inhibitors: added to culture medium on 2 DIV, FudR 10 and 50 μM; for neuronal division after addition to the culture medium: roscovitine added to the culture medium (at 3 div in MEA work)
Procedure: The hippocampi of adult rats (Charles River, age 6-12 months) were dissected and homogenized into small tissue fragments in cold medium (˜4° C.) consisting of Hibernate-A, Glutamax, and antibiotic-antimycotic. The tissue was then digested for 30 minutes at 37° C. in calcium-free Hibernate-A (HA) containing 6 mg papain/12 ml (HA). Following digestion, the tissue was washed three times with cold Hibernate-A media to remove any active enzyme. Next, the tissue was suspended in Dissociation Media (Table 1), formulated for dissociation of rat and mouse adult brain tissue into individual cells and dissociated into individual cells through mechanical dissociation with fire-polished Pasteur pipettes. The dissociated cells were suspended in Plating Media (Table 1), used after tissue dissociation to promote neuronal attachment and regeneration, and then deposited onto DETA-coated glass cover slips for 30-45 minutes. DETA, with its triamine functional group exposed at the surface, strongly attaches to neurons and allows for all non-neuronal debris such as ECM proteins, myelin debris, and cell fragments to be washed from the cover slip surface (D. A. Stenger et al., 1993; J. J. Hickman et al., 1994; M. Das et al., 2005; A. E. Schaffner et al., 1995). Following this washing step, fresh Plating medium was applied and remained for the first 3 DIV. On 3 DIV and every fourth subsequent day, one half of the medium was removed and replaced with Maintenance Media (FIG. 1, Table 1), supporting the long-term maintenance of these neurons. […] The osmolarity of the media was adjusted to match the osmolarity of adult rat cerebrospinal fluid (295-305 mOsm) (S. C. Baraban et al., 1997; R. A. Fishman and G. D. Silverberg, 2002). In the Dissociation Medium (Table 1), the use of caspase inhibitors and antioxidants (M. Das et al., 2007) during the dissociation of the tissue minimized both oxidative damage as well as the progression into apoptosis which normally results from cellular damage during this stage. […] For long-term survival, the anti-oxidants were removed from the Maintenance Medium (Table 1).
After neuronal confluence, 25 μM glutamate ((N-Acetyl-L-glutamic acid, Aldrich, 855642) triggers induction of neuronal electrical recovery (D. Edwards et al., 2010). Control of the division of neurons in this culture system was investigated experimentally as follows: (1) bFGF removal from both the Plating and Maintenance medium. (2) Fluorodeoxyuridine (FudR, Sigma-Aldrich, F-0503) addition at 10 and 50 μM (3) arabinoside-D (ara-C, Sigma, C-6645) plus deoxycytidine addition. (4) Trolox (Sigma, 238813) addition at 40 and 100 μM. (5) Aphidicolin (Aph, Sigma, A0781) addition at 1.5 μM. (6) Roscovitine (Rosc, Sigma, R7772) addition at 1, 5, and 10 μM. All factors were added before the onset of neuronal division (2 DIV), some after the onset of division (after 3 DIV).
To prepare cells for immunocytochemical characterization, cover slips were rinsed twice with Phosphate Buffered Saline (PBS). Cells were fixed with 4% paraformaldehyde for ten minutes at room temperature, and subsequently rinsed three times with PBS. Cells were permeabilized for five min in PBS with 5 mM Lysine and 0.5% Triton X-100, and were then blocked for two hours by adding 5% normal donkey serum. Anti-Neurofilament-M polyclonal antibody (Nf-M, intracellular filament found in mature neurons, Chemicon, AB 1981, diluted 1:1000), anti-NeuN (nuclear marker in mature neurons, Chemicon, diluted 1:1000), anti-Ki-67 (nuclear marker in dividing cells, Chemicon, diluted 1:1000), anti-NR2A (NMDA channel subunit expressed in the post-synaptic cell membrane, AB1548, diluted 1:75), anti-NR2B (NMDA channel subunit expressed in the post-synaptic cell membrane, MAB5216, diluted 1:150) were added in blocking solution for 12 hr at 4° C. After 3 washes with PBS, fluorescently labeled secondary antibodies (Invitrogen, A1011, A21449, and A11029) were applied for two hours. […]

[2] = tested on: embryonic rat hippocampal neurons on MEAs; experiment: MEA recording of spontaneous activity, embryonic hippocampal neurons; settings: embryonic cultures
Procedure: Embryonic hippocampal neurons were cultured. Pregnant rats, 18 days in gestation, obtained from Charles River were euthanized with carbon dioxide and the fetuses were collected in ice-cold Hibernate E (BrainBits)/B27/Glutamaxtm/Antibiotic-antimycotic (Invitrogen) (Dissecting Medium). Each fetus was decapitated, and the whole brain was transferred to fresh ice cold dissecting medium. After isolation, the hippocampi were collected in a fresh tube of dissecting medium. The tissue was enzymatically digested at 37° C. for 10 minutes with papain (Worthington 3119), 12 mg/6 ml Hibernate-E (-calcium) (BrainBits)+0.5 mM Glutamax (Invitrogen). Hippocampal neurons were obtained by triturating the tissue using a fire-polished Pasteur pipette. After centrifugation, the cells were re-suspended in culture medium (Neurobasal/B27/Glutamaxtm/antibiotic-antimycotic) and plated on MEAs. All research was approved by the Institutional Animal Care and Use Committee at the University of Central Florida and conformed to NIH guidelines.
(§1) The MEA chips (Axion Biosystems) provided 64 platinum-black coated gold-electrodes with a diameter of 30 μm, organized in an 8 by 8 array with 200 μm pitch. Clean MEAs were sterilized with 70% alcohol and then incubated with 1 ml poly-L-lysine (100 μg/ml) for 30 minutes. An area just large enough to cover all electrodes was additionally coated with 3 μl laminin (2 μg/ml) over night. Embryonic rat hippocampal neurons were plated directly on MEAs at a density of 500 cells/mm2. Adult rat hippocampal neurons were first cultured on DETA coated cover slips for recovery. […] After 4 days on DETA cover slips, the adult neurons were passaged onto MEAs at a density of 500 cells/mm2. Every 2-3 days, half the medium was replaced with fresh Maintenance medium supplemented with 2 μM Rosc.
(§2) MEAs were incubated with their covers off to allow gas exchange but covered upon removal from the incubator to reduce contamination, media evaporation, and gas exchange while recordings were taken. The head stage of the recording system (Axion Biosystems) was pre-heated to 37° C. before MEAs with adult or embryonic hippocampal cultures were investigated. The activity of neuronal networks was recorded with 25 kHz using the software Axion's Integrated Studio (AxIS). Signal amplitudes 6 times larger than the standard deviation of the base line were detected as action-potential spikes. The spike data was then imported into Matlab 2010b (The MathWorks) for further processing.
Baseline spontaneous activity in adult and embryonic neurons was recorded for 3 minutes on 5 consecutive days per week, starting on 7 div. The synaptic antagonists D-(−)-2-Amino-5-phosphonopentanoic acid (D-APS, 25 μM, Tocris Bioscience, 0106), 6-Cyano-7-nitroquinoxaline-2,3-dione disodium (CNQX, 25 μM, Tocris Bioscience, 1045), and (−)-Bicuculline methobromide (Bicuculline, 50 μM, Tocris Bioscience, 0109) were separately administered to both adult and embryonic neurons on 14 div and at various time points between 30 and 60 div. Three minute recordings were made to quantify the effect from these antagonists on spontaneous activity. If necessary, additional baselines were recorded prior to the administration of antagonists. Each experiment was followed by a complete washout of the antagonist and replacement with fresh medium.
Data analysis was performed off-line using unpublished Matlab functions to evaluate spike files created during each MEA recording. […] In about 25% of the adult cultures and 14% of the embryonic cultures, portions of the neuronal networks detached from the substrate over time and especially after about 6 weeks. In order to accommodate the different numbers of active channels between MEAs, all values were corrected for the amount of active channels on an MEA. […]

[3] = tested on: adult rat hippocampal neurons on MEAs; experiment: MEA recording of spontaneous activity, adult hippocampal neurons; settings: adult cultures
Procedure: Adult neurons were extracted, dissociated, cultured, and maintained. Briefly, the hippocampi of adult rats (Charles River, age 6-12 months) were dissected and homogenized into small tissue fragments in cold medium (˜4° C.) consisting of Hibernate-A, glutamax, and antibiotic-antimycotic. The tissue was digested for 30 minutes at 37° C. in calcium-free Hibernate-A (HA) containing 6 mg papain/12 ml (HA no calcium). Following digestion, the tissue was washed three times with cold HA media to remove any active enzyme. Next, the tissue was suspended in Dissociation Medium and broken apart into individual cells through mechanical dissociation with fire-polished Pasteur pipettes. The dissociated cells were suspended in Plating medium and then deposited onto DETA (N-1 [3-(trimethoxysilyl) propyl]-diethylenetriamine, United Chemical Technologies Inc., Bristol, Pa., T2910KG) coated glass cover slips. After 30-45 minutes, the cover slips were washed with warm HA by gently swirling the medium to remove tissue debris. Following this washing step, fresh Plating medium was applied and remained for the first 3 div. On 3 div the medium was removed and replaced by Maintenance Medium with 5 μM Roscovitine (Rosc, Sigma, R7772). All research was approved by the Institutional Animal Care and Use Committee at the University of Central Florida and conformed to NIH guidelines. After 4 div, the adult hippocampal neurons on the DETA cover slips were passaged to MEAs. Briefly, neurons were dislodged from the DETA with trypsin (0.05% trypsin/EDTA in HBSS, Gibco, 25200). Trypsin inhibitor (trypsin inhibitor, soybean, Gibco, 17075-029) in Dissociation medium at 0.5 mg per ml deactivated the trypsin. The dislodged neurons were collected and spun at 500×g for 5 minutes. The supernatant of deactivated trypsin in HBSS was discarded, and the neuronal cell pellet was suspended in 1 ml Plating medium. Immunocytochemistry and Laser Scanning Confocal Microscopy
as §1, §2
Baseline spontaneous activity in adult and embryonic neurons was recorded for 3 minutes on 5 consecutive days per week, starting on 7 div. The synaptic antagonists D-(−)-2-Amino-5-phosphonopentanoic acid (D-APS, 25 μM, Tocris Bioscience, 0106), 6-Cyano-7-nitroquinoxaline-2,3-dione disodium (CNQX, 25 μM, Tocris Bioscience, 1045), and (−)-Bicuculline methobromide (Bicuculline, 50 μM, Tocris Bioscience, 0109) were separately administered to both adult and embryonic neurons on 14 div and at various time points between 30 and 60 div. […]

Compound: bFGF: basic fibroblast growth factor (Invitrogen, 13256-029)
- neuronal cell proliferation ([1]; bFGF 5 ng/ml in medium): triggered neuronal cell proliferation until confluence

Compound: N[C@H](CCCP(=O)(O)O)C(=O)O [D-AP5, D-(−)-2-Amino-5-phosphonopentanoic acid]
- increase of firing rate versus baseline ([2]; 25 μM antagonist, 14 div): 90±6%
- loss of channel activity (active channels) versus baseline ([2]; 25 μM antagonist, 14 div): 65±4%
- decrease (drop) of firing rate versus baseline ([2]; 25 μM antagonist, 30-60 div): 70±7%
- loss of channel activity (active channels) versus baseline ([2]; 25 μM antagonist, 30-60 div): 36±7%
- loss of channel activity (active channels) versus baseline ([3]; 25 μM antagonist, 14 div): 90±6%
- lowering of action potential frequency versus baseline ([3]; 25 μM antagonist, 14 div): 76±8%
- loss of channel activity (active channels) versus baseline ([3]; 25 μM antagonist, 30-60 div): 82±6%
- lowering (drop) of action potential frequency versus baseline ([3]; 25 μM antagonist, 30-60 div): 82±17%

Compound: Cc1c(C)c2c(c(C)c1O)CCC(C)(C(=O)O)O2 (centres unmarked) [Trolox]
- prevention of return of primary neurons to the cell cycle ([1]; Trolox 40 and 100 μM, 2 DIV): not effective
- neuronal survival (antioxidant activity) ([1]; Trolox in culture medium): improve neuronal survival

Compound: O=c1[nH]c(=O)n([C@H]2C[C@H](O)[C@@H](CO)O2)cc1F [FudR, Fluorodeoxyuridine]
- elimination of division of cultured neurons by mitotic inhibitors [1]: all dividing cells were forced into apoptosis

Compound: CC[C@H](CO)Nc1nc(NCc2ccccc2)c2ncn(C(C)C)c2n1 [roscovitine]
- neuronal cell population ([1]; 1 μM roscovitine applied on day 2, bFGF in medium): the cell population increased more slowly than without roscovitine
- extension of primary axons versus untreated control neurons ([1]; 5 μM roscovitine days 2-7, 2 μM after day 7, on average): 4-5 times longer
- neuronal cell population ([1]; 5 μM roscovitine on days 2-7 in vitro and 2 μM after day 7): A stable population of neurons was achieved
- neuronal cell population ([1]; 5 μM roscovitine on days 2-7 in vitro and 2 μM after day 7, listed as Rosc): stable in vitro
- neuronal cell population ([1]; 10 μM roscovitine applied on day 2): caused a decrease in the neuronal population
- neuronal cell population ([1]; 10 μM roscovitine introduced on day 7): a sharp loss of neurons
- neuronal division after addition to the culture medium [1]: neurons no longer divided
- neuronal division after addition to the culture medium ([1]; listed as Roscovitine): prevented neuronal mitotic activity
- expression of neuronal and proliferation markers (MAP2, NeuN, Ki-67) ([1]; roscovitine treated, non-proliferating neurons, immunocytochemistry): expressed the mature neuronal markers MAP2 and NeuN, but lacked expression for the nuclear marker of proliferating cells, Ki-67

Compound: Nc1ccn([C@@H]2O[C@H](CO)[C@@H](O)[C@@H]2O)c(=O)n1 [ara-C, arabinoside-D]
- elimination of division of cultured neurons by mitotic inhibitors [1]: all dividing cells were forced into apoptosis

Compound: C[C@@]1(CO)[C@H](O)CC[C@@]2(C)[C@H]1CC[C@H]1C[C@@H]3C[C@@]12CC[C@]3(O)CO [aphidicolin, Aphidicolin]
- regeneration of surviving neurons ([1]; aphidicolin 1.5 μM, 2 DIV): limited regeneration of neurites and functional electrical properties
- survival of cultured neurons ([1]; aphidicolin 1.5 μM, 2 DIV): caused most cultured neurons to either necrose or apoptose

Compound: N#Cc1cc2c(cc1[N+](=O)[O-])=NC(=O)C(=O)N=2.[Na].[Na] [CNQX, 6-Cyano-7-nitroquinoxaline-2,3-dione disodium]
- change in action potential frequency ([2]; 25 μM CNQX, 14 div): not affected
- loss of channel activity (active channels) versus baseline ([2]; 25 μM antagonist, 14 div): 23±5%
- decrease (drop) of firing rate versus baseline ([2]; 25 μM antagonist, 30-60 div): 47±5%
- loss of channel activity (active channels) versus baseline ([2]; 25 μM antagonist, 30-60 div): 0±7%
- change in action potential frequency ([3]; 25 μM CNQX, 14 div): not affected
- loss of channel activity (active channels) versus baseline ([3]; 25 μM antagonist, 14 div): 52±3%
- loss of channel activity (active channels) versus baseline ([3]; 25 μM antagonist, 30-60 div): 24±5%
- lowering (drop) of action potential frequency versus baseline ([3]; 25 μM antagonist, 30-60 div): 31±6%
